Assay results published in BindingDB's records for doi:10.1016/j.chembiol.2004.10.013 (University of Dundee, 2005).
pIC50, pKd, pKi: −log10 of the molar value. *1 amine or outer side, *2 acyl side, *3 side chain or, on linkers, in order; H or OH if unused. Where a SMILES comes first, the peptide text is derived from it. Side-chain parts run from the residue outwards. [ ]: non-standard residue; d: D form. βAsp = O=C(O)[C@H](CC(=O)[*:2])N[*:1]; NMeF = CN[C@@H](Cc1ccccc1)C(=O)O; CO = O=C([*:1])[*:2]

Tests used:
Test in all cases: Enzyme Inhibition Assay
Endochitinase B1 [D175A] = Endochitinase B1 [D175A] (Aspergillus fumigatus, UniProt Q873X9, D175A)
Endochitinase B1 [E322A] = Endochitinase B1 [E322A] (Aspergillus fumigatus, UniProt Q873X9, E322A)
Endochitinase B1 [Y245F] = Endochitinase B1 [Y245F] (Aspergillus fumigatus, UniProt Q873X9, Y245F)
Endochitinase B1 = Endochitinase B1 (Aspergillus fumigatus, UniProt Q873X9); conditions: for pIC50: pH 5.5, 37 °C
Endochitinase B1 [M243A] = Endochitinase B1 [M243A] (Aspergillus fumigatus, UniProt Q873X9, M243A)
Endochitinase B1 [A217G] = Endochitinase B1 [A217G] (Aspergillus fumigatus, UniProt Q873X9, A217G)
Endochitinase B1 [T138A] = Endochitinase B1 [T138A] (Aspergillus fumigatus, UniProt Q873X9, T138A)
Endochitinase B1 [R301K] = Endochitinase B1 [R301K] (Aspergillus fumigatus, UniProt Q873X9, R301K)
Chitinase B = biological target: T1, Chitinase B (Serratia marcescens, UniProt P11797); conditions: pH 5.5; 37 °C
T1 sequence (P11797 whole entry): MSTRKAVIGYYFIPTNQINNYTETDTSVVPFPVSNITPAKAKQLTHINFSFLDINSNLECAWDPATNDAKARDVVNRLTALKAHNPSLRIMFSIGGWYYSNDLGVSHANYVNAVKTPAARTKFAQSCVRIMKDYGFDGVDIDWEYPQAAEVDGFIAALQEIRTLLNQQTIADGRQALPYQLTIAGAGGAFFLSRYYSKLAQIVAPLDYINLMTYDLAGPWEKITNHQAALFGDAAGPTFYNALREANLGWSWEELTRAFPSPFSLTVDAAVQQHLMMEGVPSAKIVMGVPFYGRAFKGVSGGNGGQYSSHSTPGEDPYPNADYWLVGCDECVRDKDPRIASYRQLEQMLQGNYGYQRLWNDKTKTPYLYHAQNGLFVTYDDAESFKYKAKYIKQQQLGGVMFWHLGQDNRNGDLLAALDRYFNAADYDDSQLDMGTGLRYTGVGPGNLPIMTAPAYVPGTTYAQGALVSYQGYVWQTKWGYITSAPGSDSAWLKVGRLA

Structure (SMILES)	pKd (Endochitinase B1 [D175A])	pKd (Endochitinase B1 [E322A])	pKd (Endochitinase B1 [Y245F])	pKd (Endochitinase B1)	pIC50 (Endochitinase B1)	pKd (Endochitinase B1 [M243A])	pKd (Endochitinase B1 [A217G])	pKd (Endochitinase B1 [T138A])	pKd (Endochitinase B1 [R301K])	pKi (Chitinase B)
CC(=O)NC(=N)NCCC[C@@H]1NC(=O)[C@H](CCCC(=O)O)NC(=O)[C@H](Cc2c[nH]cn2)N2C(=O)[C@H](C[C@H]2O)NC(=O)[C@H]2CCCN2C1=O [4-[(1S,4R,10S,13S,16S,18R)-10-{3-[(acetamidomethanimidoyl)amino]propyl}-18-hydroxy-16-(1H-imidazol-4-ylmethyl)-3,9,12,15,20-pentaoxo-2,8,11,14,17-pentaazatricyclo[15.2.1.0^{4,8}]icosan-13-yl]butanoic acid]	5.44	5.53	5.25	6.09	6.30	5.03	5.55	5.52	5.99	7.70
CNC(=O)NC(=N)NCCC[C@@H]1NC(=O)[C@@H](C)NC(=O)C[C@@H](C(=O)O)NC(=O)C[C@@H](C(=O)O)NC(=O)[C@H](Cc2ccccc2)N(C)C1=O [(2R,5S,8S,11S,15S)-8-benzyl-2,7-dimethyl-5-[3-({[(methylcarbamoyl)amino]methanimidoyl}amino)propyl]-3,6,9,13,17-pentaoxo-1,4,7,10,14-pentaazacycloheptadecane-11,15-dicarboxylic acid] (cyclo([NMeF][βAsp][βAsp][dA]R([CO-NHMe])))	5.42	5.86	–	6.34	5.96	5.76	5.37	5.92	5.67	4.48
